The record followed here is patent US20240158393A1, “PYRIDONE COMPOUNDS AND METHODS OF USE” (Exelixis, Inc., priority 2021, published 2024).

In this experiment the target is T1, Human Mer (Homo sapiens, UniProt Q12866).
T1 construct: Human Mer (residues R557-E882 with H628Q and R794A, 0.7 nM); purchased Eurofins Pharma Discovery Services UK Limited (KinaseProfiler service)
T1 sequence (Q12866 557-882 limits assumed): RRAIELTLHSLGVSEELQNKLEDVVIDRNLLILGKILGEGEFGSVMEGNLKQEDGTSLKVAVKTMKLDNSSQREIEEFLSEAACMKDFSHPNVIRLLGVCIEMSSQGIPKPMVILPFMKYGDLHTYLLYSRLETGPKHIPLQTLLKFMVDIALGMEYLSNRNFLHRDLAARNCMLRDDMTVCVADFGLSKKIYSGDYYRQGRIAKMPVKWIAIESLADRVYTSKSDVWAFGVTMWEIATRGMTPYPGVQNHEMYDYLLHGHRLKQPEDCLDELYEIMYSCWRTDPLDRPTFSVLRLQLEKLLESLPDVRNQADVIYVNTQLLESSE
Description: Human Mer kinase assay (33P radiometric / HTRF KinEase). Format: biochemical. To be noted: protocols of Examples C-1 and/or C-2. The essentials:
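Two formats yield IC50 values. HTRF KinEase used MER residues 528-999 with ATP at Km (40 μM), 1 μM biotin-peptide, 60 min RT, […], 10 concentrations. 33P filter assay used 0.7 nM Mer R557-E882 (H628Q/R794A), 10 μM ATP, 250 μM peptide, 40 min RT, top 1 μM.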
Compound `COc1cc2nccc(Oc3ccc(NC(=O)c4cnc(C)c(C5=CCCCC5)c4O)cc3F)c2cc1OC` [Compound 23, 5-(Cyclohexen-1-yl)-N-[4-(6,7-dimethoxyquinolin-4-yl)oxy-3-fluorophenyl]-4-hydroxy-6-methylpyridine-3-carboxamide] yielded an IC50 of at most 100 nM.

As for `COc1cc2nccc(Oc3ccc(NC(=O)c4cnc(C)c(C5=CCCCC5)c4O)cc3)c2cc1OC` [Compound 24, 5-(Cyclohexen-1-yl)-N-[4-(6,7-dimethoxyquinolin-4-yl)oxyphenyl]-4-hydroxy-6-methylpyridine-3-carboxamide], the IC50 is at most 100 nM.

On to `COc1cc2nccc(Oc3ccc(NC(=O)c4cnc(C)c(/C=C/C5CCCC5)c4O)cc3F)c2nc1OC` [Compound 25, 5-[(E)-2-Cyclopentylethenyl]-N-[4-[(6,7-dimethoxy-1,5-naphthyridin-4-yl)oxy]-3-fluorophenyl]-4-hydroxy-6-methylpyridine-3-carboxamide], for which the IC50 is at most 100 nM.

`COc1cc2nccc(Oc3ccc(NC(=O)c4cnc(C)c(/C=C/C5CC5)c4O)cc3F)c2nc1OC` [Compound 26, 5-[(E)-2-Cyclopropylethenyl]-N-[4-[(6,7-dimethoxy-1,5-naphthyridin-4-yl)oxy]-3-fluorophenyl]-4-hydroxy-6-methylpyridine-3-carboxamide] displayed an IC50 of at most 100 nM.

For `COc1cc2nccc(Oc3ccc(NC(=O)c4cnc(C)c(/C=C/C(C)(C)C)c4O)cc3F)c2nc1OC` [Compound 27, N-[4-[(6,7-Dimethoxy-1,5-naphthyridin-4-yl)oxy]-3-fluorophenyl]-5-[(E)-3,3-dimethylbut-1-enyl]-4-hydroxy-6-methylpyridine-3-carboxamide], the IC50 was at most 100 nM.

`COc1cc2nccc(Oc3ccc(NC(=O)c4cnc(C)c(/C=C/CC(C)C)c4O)cc3F)c2nc1OC` [Compound 28, N-[4-[(6,7-Dimethoxy-1,5-naphthyridin-4-yl)oxy]-3-fluorophenyl]-4-hydroxy-6-methyl-5-[(E)-4-methylpent-1-enyl]pyridine-3-carboxamide] yielded an IC50 of at most 100 nM.

The compound `COc1cc2nccc(Oc3ccc(NC(=O)c4cnc(C)c(/C=C/CC(C)C)c4O)cc3F)c2cc1OC` [Compound 29, N-[4-(6,7-Dimethoxyquinolin-4-yl)oxy-3-fluorophenyl]-4-hydroxy-6-methyl-5-[(E)-4-methylpent-1-enyl]pyridine-3-carboxamide] showed an IC50 of at most 100 nM.

As to `COc1cc2nccc(Oc3ccc(NC(=O)c4cnc(C)c(/C=C/C(C)(C)C)c4O)cc3F)c2cc1OC` [Compound 30, N-[4-(6,7-Dimethoxyquinolin-4-yl)oxy-3-fluorophenyl]-5-[(E)-3,3-dimethylbut-1-enyl]-4-hydroxy-6-methylpyridine-3-carboxamide], the IC50 is at most 100 nM.

With `COc1cc2nccc(Oc3ccc(NC(=O)c4c(C)nc(C)c(C(C)C)c4O)cc3F)c2nc1OC` [Compound 31, N-[4-[(6,7-Dimethoxy-1,5-naphthyridin-4-yl)oxy]-3-fluorophenyl]-4-hydroxy-2,6-dimethyl-5-propan-2-ylpyridine-3-carboxamide], the IC50 is at most 100 nM.

As for `COc1cnc2c(Oc3ccc(NC(=O)c4c(C)nc(C)c(C(C)C)c4O)cc3F)ccnc2c1` [Compound 32, N-[3-Fluoro-4-[(7-methoxy-1,5-naphthyridin-4-yl)oxy]phenyl]-4-hydroxy-2,6-dimethyl-5-propan-2-ylpyridine-3-carboxamide], the IC50 is at most 100 nM.

As to `COCCOc1cc2nccc(Oc3ccc(NC(=O)c4cnc(C)c(C5=CCCC5)c4O)cc3F)c2nc1OC` [Compound 33, 5-(Cyclopenten-1-yl)-N-[3-fluoro-4-[[6-methoxy-7-(2-methoxyethoxy)-1,5-naphthyridin-4-yl]oxy]phenyl]-4-hydroxy-6-methylpyridine-3-carboxamide], the IC50 is at most 100 nM.

`COCCOc1cc2nccc(Oc3ccc(NC(=O)c4cnc(C)c(C5=CCCCC5)c4O)cc3F)c2nc1OC` [Compound 34, 5-(Cyclohexen-1-yl)-N-[3-fluoro-4-[[6-methoxy-7-(2-methoxyethoxy)-1,5-naphthyridin-4-yl]oxy]phenyl]-4-hydroxy-6-methylpyridine-3-carboxamide]: the IC50 is at most 100 nM.

For `COCCOc1cc2nccc(Oc3ccc(NC(=O)c4cnc(C)c(C5=CCOCC5)c4O)cc3F)c2nc1OC` [Compound 35, 5-(3,6-Dihydro-2H-pyran-4-yl)-N-[3-fluoro-4-[[6-methoxy-7-(2-methoxyethoxy)-1,5-naphthyridin-4-yl]oxy]phenyl]-4-hydroxy-6-methylpyridine-3-carboxamide], the IC50 is at most 100 nM.

With `COCCOc1cc2nccc(Oc3ccc(NC(=O)c4cnc(C)c(/C=C/C5CCCC5)c4O)cc3F)c2nc1OC` [Compound 36, 5-[(E)-2-Cyclopentylethenyl]-N-[3-fluoro-4-[[6-methoxy-7-(2-methoxyethoxy)-1,5-naphthyridin-4-yl]oxy]phenyl]-4-hydroxy-6-methylpyridine-3-carboxamide], the IC50 is at most 100 nM.

In the case of `COCCOc1cc2nccc(Oc3ccc(NC(=O)c4cnc(C)c(/C=C/C5CC5)c4O)cc3F)c2nc1OC` [Compound 37, 5-[(E)-2-Cyclopropylethenyl]-N-[3-fluoro-4-[[6-methoxy-7-(2-methoxyethoxy)-1,5-naphthyridin-4-yl]oxy]phenyl]-4-hydroxy-6-methylpyridine-3-carboxamide], the concentration for half-maximal inhibition (IC50) is at most 100 nM.

Compound `COc1cc2nccc(Oc3ccc(NC(=O)c4c(C)ccn(C(C)C)c4=O)cc3F)c2nc1OC` [Compound 38, N-[4-[(6,7-Dimethoxy-1,5-naphthyridin-4-yl)oxy]-3-fluorophenyl]-4-methyl-2-oxo-1-propan-2-ylpyridine-3-carboxamide] yielded an IC50 of at most 100 nM.

Regarding `COc1cc2nccc(Oc3ccc(NC(=O)c4c(C)ccn(C(C)C)c4=O)cc3)c2nc1OC` [Compound 39, N-[4-[(6,7-Dimethoxy-1,5-naphthyridin-4-yl)oxy]phenyl]-4-methyl-2-oxo-1-propan-2-ylpyridine-3-carboxamide], the IC50 is at most 100 nM.

As for `COCCOc1cc2nccc(Oc3ccc(NC(=O)c4cnc(C)c(/C=C/C(C)(C)C)c4O)cc3F)c2nc1OC` [Compound 40, 5-[(E)-3,3-Dimethylbut-1-enyl]-N-[3-fluoro-4-[[6-methoxy-7-(2-methoxyethoxy)-1,5-naphthyridin-4-yl]oxy]phenyl]-4-hydroxy-6-methylpyridine-3-carboxamide], the IC50 was at most 100 nM.

`COCCOc1cc2nccc(Oc3ccc(NC(=O)c4c(C)nc(C)c(C5=CCCC5)c4O)cc3F)c2nc1OC` [Compound 41, 5-(Cyclopenten-1-yl)-N-[3-fluoro-4-[[6-methoxy-7-(2-methoxyethoxy)-1,5-naphthyridin-4-yl]oxy]phenyl]-4-hydroxy-2,6-dimethylpyridine-3-carboxamide] showed an IC50 of at most 100 nM.

Turning to `COCCOc1cc2nccc(Oc3ccc(NC(=O)c4c(C)n(C)c(C)c(C5=CCCC5)c4=O)cc3F)c2nc1OC` [Compound 42, 5-(Cyclopenten-1-yl)-N-[3-fluoro-4-[[6-methoxy-7-(2-methoxyethoxy)-1,5-naphthyridin-4-yl]oxy]phenyl]-1,2,6-trimethyl-4-oxopyridine-3-carboxamide], the IC50 was at most 100 nM.

With `COCCOc1cc2nccc(Oc3ccc(NC(=O)c4c(C)nc(C)c(C5=CCOCC5)c4O)cc3F)c2nc1OC` [Compound 43, 5-(3,6-Dihydro-2H-pyran-4-yl)-N-[3-fluoro-4-[[6-methoxy-7-(2-methoxyethoxy)-1,5-naphthyridin-4-yl]oxy]phenyl]-4-hydroxy-2,6-dimethylpyridine-3-carboxamide], the IC50 is at most 100 nM.

In turn, `COCCOc1cc2nccc(Oc3ccc(NC(=O)c4c(O)c(C5=CCOCC5)c(C)[n+](C)c4C)cc3F)c2nc1OC` [Compound 44, 5-(3,6-Dihydro-2H-pyran-4-yl)-N-[3-fluoro-4-[[6-methoxy-7-(2-methoxyethoxy)-1,5-naphthyridin-4-yl]oxy]phenyl]-1,2,6-trimethyl-4-oxopyridine-3-carboxamide] showed an IC50 of at most 100 nM.

With `COCCOc1cc2nccc(Oc3ccc(NC(=O)c4c(C)n(C)c(C)c(/C=C/C(C)(C)C)c4=O)cc3F)c2nc1OC` [Compound 45, 5-[(E)-3,3-Dimethylbut-1-enyl]-N-[3-fluoro-4-[[6-methoxy-7-(2-methoxyethoxy)-1,5-naphthyridin-4-yl]oxy]phenyl]-1,2,6-trimethyl-4-oxopyridine-3-carboxamide], the IC50 is at most 100 nM.

`COc1cc2nccc(Oc3ccc(NC(=O)c4c(C)n(C)c(C)c(C5CC5)c4=O)cc3F)c2nc1OC` [Compound 46, 5-Cyclopropyl-N-[4-[(6,7-dimethoxy-1,5-naphthyridin-4-yl)oxy]-3-fluorophenyl]-1,2,6-trimethyl-4-oxopyridine-3-carboxamide] yielded an IC50 of at most 100 nM.

`COc1cc2nccc(Oc3cc(F)c(NC(=O)c4c(C)n(C)c(C)c(C5CC5)c4=O)cc3F)c2nc1OC` [Compound 47, 5-Cyclopropyl-N-[4-[(6,7-dimethoxy-1,5-naphthyridin-4-yl)oxy]-2,5-difluorophenyl]-1,2,6-trimethyl-4-oxopyridine-3-carboxamide] gave an IC50 of at most 100 nM.

The compound `COc1cc2nccc(Oc3ccc(NC(=O)c4c(C)n(C)c(C)c(C5CC5)c4=O)cc3)c2nc1OC` [Compound 48, 5-Cyclopropyl-N-[4-[(6,7-dimethoxy-1,5-naphthyridin-4-yl)oxy]phenyl]-1,2,6-trimethyl-4-oxopyridine-3-carboxamide] yielded an IC50 above 300 nM.
